IC50 data for two molecules are collected here from US20130005741A1, “SUBSTITUTED PYRIMIDINE AS A PROSTAGLANDIN D2 RECEPTOR ANTAGONIST” (AVENTIS PHARMACEUTICALS INC., priority 2010, published 2013).

Molecules are shown by their SMILES. Structures can show the parent of a compound that is named as a salt.

For the experiment, the target named is T1, human prostaglandin D2 receptor (DP) (Homo sapiens, UniProt Q13258).
T1 construct: endogenous in cells; host or cells: human platelets in platelet-rich plasma from donor blood
T1 sequence (Q13258 1-359): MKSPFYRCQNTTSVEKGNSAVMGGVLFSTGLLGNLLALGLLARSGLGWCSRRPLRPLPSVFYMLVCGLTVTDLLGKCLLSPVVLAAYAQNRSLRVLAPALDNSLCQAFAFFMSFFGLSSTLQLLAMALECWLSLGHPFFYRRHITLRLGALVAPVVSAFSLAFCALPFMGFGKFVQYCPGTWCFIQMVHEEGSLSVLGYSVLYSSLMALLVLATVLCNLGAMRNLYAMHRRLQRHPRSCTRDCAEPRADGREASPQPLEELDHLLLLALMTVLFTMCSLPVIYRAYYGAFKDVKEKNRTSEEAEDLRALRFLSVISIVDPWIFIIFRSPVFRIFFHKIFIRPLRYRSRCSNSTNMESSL
In words: BW245C-induced cAMP accumulation in human platelet rich plasma (hPRP) by HTRF cAMP assay. Format: cell-based. To be noted: inhibition of BW245C (25 nM)-induced cAMP accumulation in human platelet-rich plasma. From the text:
Assessment of Antagonist Activities of Compounds on BW245C-Induced cAMP
Accumulation in Human Platelet Rich Plasma (hPRP) by HTRF cAMP Assay
The purpose of the assay is to assess compound antagonist activity at the human prostaglandin D2 receptor (DP), also known as (DP1), in the presence of plasma proteins. DP is a Gs-protein coupled receptor, the activation of which induces cAMP accumulation. BW245C is a DP selective agonist. Therefore, by measuring inhibition of BW245C-induced 3′-5′-cyclic adenosine monophosphate (cAMP) accumulation in human platelet-rich plasma (hPRP), the assay enables us to identify or confirm antagonist compounds at the human DP and/or IP receptors.
The principle of the assay is based on HTRF technology (Homogeneous Time-Resolved Fluorescence). The method is a competitive immunoassay between native cAMP produced by cells and the tracer cAMP labeled with the dye d2. The tracer is visualized by a monoclonal antibody anti-cAMP labeled with cryptate. The specific signal (i.e. energy transfer) is inversely related to the concentration of cAMP in the standards or samples. The assay was carried out using the cAMP HiRange HTRF kit from Cisbio (catalog number 62AM6PEB, 888-963-4567).
Preparation of Human Platelet Rich Plasma (hPRP): Human blood was obtained from sanofi-aventis on-site blood donor panel. […]

Molecule `COc1nc(NCCc2ccc(OC(F)(F)F)cc2)cc(N2CCC[C@H](CC(=O)O)C2)n1` (single isomer, unassigned) [(R) enantiomer] came in with a half-inhibitory concentration (IC50) of 0.155 µM.

In the case of `COc1nc(NCCc2ccc(OC(F)(F)F)cc2)cc(N2CCC[C@@H](CC(=O)O)C2)n1` [drawing 23, (S)1-{2-Methoxy-6-[2-(4-trifluoromethoxy-phenyl)-ethylamino]-pyrimidin-4-yl}-piperidin-3-yl)-acetic acid, phosphoric acid salt], the IC50 was determined as 0.073 µM. This IC50 is about 2.1-fold lower than that of the molecule before.

What is called IC50 is the concentration that inhibits the measured activity by half. Lower therefore signals higher potency.
